Assay results: patent US6403629B2, “Heterocyclic compounds for therapeutic use” (J.B. Chemical and Pharmaceuticals Limited, priority 2000, dated 2002)

| melting point | Structure (SMILES) |
| --- | --- |
| 45 °C | Cc1ccc(-c2cc(C(F)(F)F)nn2-c2cc(C)ccc2F)cc1 [Example 2H, 1-(2-Fluoro-5-methylphenyl)-5-(4-methylphenyl)-3-(trifluoromethyl)pyrazole] |
| 83 °C | Cc1ccc(-c2cc(C(F)(F)F)nn2-c2ccc(F)cc2F)cc1 [Example 2C, 1-(2,4-Difluorophenyl)-5-(4-methylphenyl)-3-(trifluoromethyl)pyrazole] |
